# Laboratory results published in US8178058B2, “High throughput cell-based assays, methods of use and kits” (EMD Millipore Corporation, priority 2007, dated 2012).
# Test system: activated caspases
# Assay: Cell based apoptosis assay (FLICA FAM-VAD-FMK staining, gravity washing, flow cytometry)
# Settings: cells treated 2 hours at 37° C with 10, 0.63, 0.06 microMolar Staurosporine vs non-induced control
# Method: Cell based apoptosis assay was performed using gravity based filtration.
# Cells were treated with increasing concentration of well-known apoptosis inducer (Staurosporine) for 2 hours at 37° C. After induction, cells were treated with FLICA. Unbound FLICAs were removed from the nonapoptotic cells by gravity washing the cells with wash buffer 4 times. After gravity washing cells labeled with FLICAs (FAM-VAD-FMK, pan-caspases FLICA) was examined by flow cytometry.
# Shown in FIGS. 10A and B are flow cytometric histograms of FAM-VAD-FMK stained cells from induced (10, 0.63, 0.06 microMolar of Staurosporine) and non-induced control samples.
# Notice the dose response.
structure (smiles),measurement,value
CN[C@@H]1C[C@H]2O[C@@](C)([C@@H]1OC)n1c3ccccc3c3c4c(c5c6ccccc6n2c5c31)C(=O)NC4 [Staurosporine],apoptotic cell population (FAM-VAD-FMK percent positive population),Increase in apoptotic cell population
